Test results reported in patent publication US4432732A, “Method for predicting properties of a chemical compound” (priority 1982, dated 1984).
“Also recorded” adds a separate entry of the source. Where a SMILES comes first, the peptide text is derived from it. [ ]: non-standard residue; d: D form. The star is where a group is joined. ξ: configuration not given here. ξS = NC(CO)C(=O)O; OiPr = CC(C)O*

Columns and labels:
[1] = acute toxicity, LD50 (intravenous dose, small animals); conditions: in vivo, LD50 (mg/kg) divided by molecular weight, multiplied by 100
Description: Conventionally, the degree of toxicity of a compound has been known only after actual dose. LD50 data for small animals (intravenous dose) contained in the Merck Index (9th edition) were thoroughly taken to use as a learning set, which amounts to more than 300 compounds. The predictability of this chart was tested with 82 other compounds.
Toxicity scale used for this study. Unit of ordinary LD50 values are mg/kg, where mg is the quantity of substance dosed for 50% lethality and kg is the weight of the test animal.
To standardize this value on the millimore base, the LD50 values is divided by the molecular weight. In FIG. 1, the quantity is further multiplied by 100 to avoid unfamiliarly small digits.

[2] = system: small animals; conditions: intravenous dose; cited from earlier work
[3] = cited from earlier work; for taste in words: bitter or sweet taste; for sweetness, times sweeter than sucrose: taste of sucrose is 1

SMILES | taste in words [3] | also measured
CC(=O)Nc1c(I)c(NC(C)=O)c(I)c(C(=O)O)c1I [Compound I] | – | LD50 [1]: 22900 µmol/kg; observed LD50 [2]: 14700 mg/kg
COC(=O)[C@H](Cc1ccccc1)NC(=O)[C@@H](N)CC(=O)O [aspartame, reference compound] (H-Asp-Phe-OMe) | strong sweetness; also recorded: lacking bitter taste | sweetness, times sweeter than sucrose [3]: about 150 times
CNC(=O)[C@H](Cc1ccc(O)cc1)NC(=O)[C@@H](N)CC(=O)O [(IV)] (H-Asp-Tyr-NHMe) | bitter taste is observed | –
O=C1NS(=O)(=O)c2ccccc21 [saccharine, reference compound] | slight bitterness | –
N[C@@H](CC(=O)O)C(=O)N[C@@H](Cc1ccccc1)C(=O)O [(II)] (H-Asp-Phe-OH) | bitter taste is observed | –
O=S(=O)(O)NC1CCCCC1 [cyclamic acid, reference compound] | lacking bitter taste | –
OC[C@H]1O[C@@](CO)(O[C@H]2O[C@H](CO)[C@@H](O)[C@H](O)[C@H]2O)[C@@H](O)[C@@H]1O [sucrose, reference compound] | lacking bitter taste | –
CC(C)OC(=O)C(CO)NC(=O)[C@@H](N)CC(=O)O (stereo partly shown) [(VII)] (H-Asp-[ξS]-OiPr) | sweet peptides | sweetness, times sweeter than sucrose [3]: ~120 times
COc1cc(C(=O)OCCCN2CCCN(CCCOC(=O)c3cc(OC)c(OC)c(OC)c3)CC2)cc(OC)c1OC [Compound II] | – | LD50 [1]: 328 µmol/kg; observed LD50 [2]: 26.6 mg/kg
N[C@@H](CCC(=O)O)C(=O)N[C@@H](Cc1ccccc1)C(=O)O [(VI)] | bitter taste is observed | –
N[C@@H](CC(=O)O)C(=O)N[C@@H](Cc1ccc(O)cc1)C(=O)O [(III)] (H-Asp-Tyr-OH) | bitter taste is observed | –
COC(=O)[C@H](Cc1ccccc1)NC(=O)[C@@H](N)CCC(=O)O [(V)] | bitter taste is observed | –
